Where a name gives a salt, the structure may show the parent alone. Read-outs that look alike come from different tables or passages of the source.
Columns and labels:
[1] = test system: NHLF cells; experiment: RealTime–Glo MT viability assay
Protocol: The effect of compounds on cell viability was assessed by quantifying the relative metabolic activity of cells using the non–lytic luminescence–based RealTime–Glo™ MT cell viability assay (Promega) according to the manufacturer’s instructions.

[2] = test system: normal human lung fibroblasts (NHLF); experiment: Phenotypic high-content assay (HCA) of TGF–β1–induced fibroblast–to–myofibroblast differentiation; type: cell-based; details: for inhibition at 10 µM: read-out: Effect HCA at 10 µM [% inhibition]; for IC50: read-out: HCA IC50
Protocol: (§1) The plate was washed 3 times with starvation medium, e.g. fibroblast basal medium (FBM, Lonza) supplemented with 0.1% faf BSA, 100 units / ml of penicillin and 100 μg / ml of streptomycin and 250 ng / ml amphotericin B, and then starved for 24 h in 30 μl volume. NHLF were differentiated into myofibroblasts by incubation with 5 ng / ml TGF–β1 (from a stock of 20 μg / ml in 4 mM HCl, 1 mg / ml BSA) for 48 h. Compounds were prepared as 5x stocks in starvation medium and added to the starved cells to a final 1x concentration concomitant with TGF–β1 addition. The final DMSO concentration in the assay was 0.6% in all wells. 48 h after TGF–β1 addition, the medium was removed and the cells were fixed in methanol for 10 min at room temperature (RT). After fixation, cells were washed 3 times with 1 x PBS and either stored at 4°C for up to 3 days or further processed. […] Images were acquired on the Opera Phenix confocal high–content screening system (Perkin Elmer) using the 20–x water immersion lens.
(§2) DAPI stained nuclei were used to identify cells. α–SMA and FN regions were then identified and mapped to the corresponding nuclei for background correction, cell segmentation and cell feature computation to identify, classify and weigh over 400 features per cell. The computed features (S1 Table) comprise, but are not limited to, granularity, intensity, texture, area, shape and solidity of a cell in both α–SMA–and FN–expressing regions. The 0% compound effect (5 ng / ml TGF–β1) and the 100% compound effect (0 ng / ml TGF–β1) controls, were used to train and validate a support vector machine (SVM), a supervised learning model with associated learning algorithm that, once successfully validated, was applied to every cell in every well of the assayed microtiter plate. The SVM allowed autonomous weighting and classification of the characteristics and thus enabled the classifier to decide which characteristics were most relevant for the differentiation of the cell types. […] The classification of each cell was aggregated to a cell type ratio per well, represented as the computed percentage effect value per well indicative of the degree of myofibroblast differentiation. E.g. 100% equals complete myofibroblast differentiation, 0% indicates a pure fibroblast population without any signs of differentiation.

[3] = test system: normal human lung fibroblasts (NHLF); experiment: Nuclear count in the HCA, standard assay; type: cell-based; details: Homo sapiens, Fibroblast, read-out: Nuclear count IC50
Protocol: as §1, §2

[4] = Homo sapiens, Fibroblast, 48 h, NHLF, 5 ng/ml TGF–β1 for 48 h, compound added with TGF–β1, mean ± SD
[5] = Homo sapiens, Fibroblast, 10 µM compound, 5 ng/ml TGF–β1, 48 h
[6] = 48 h, standard HCA, NHLF, 5 ng/ml TGF–β1, 48 h
[7] = Homo sapiens, Fibroblast, NHLF, 5 ng/ml TGF–β1 for 48 h, compound added with TGF–β1, mean ± SD

| SMILES | Effect on viability at 10 µM [% reduction] ([1]; 10 µM compound) | Effect on viability at 10 µM [% reduction] ([1]; human, 10 µM) | IC50 [2, 4] [µM] | inhibition at 10 µM [2, 5] [%] | IC50 [3, 6] [µM] | other results |
| --- | --- | --- | --- | --- | --- | --- |
| Cc1c(-c2ccc(O)cc2)n(Cc2ccc(OCCN3CCCCCC3)cc2)c2ccc(O)cc12.Cl [Bazedoxifene HCl] | – | – | – | – | – | Effect on viability at 10 µM [% reduction] [1]: 55 % reduction |
| CC(C)(C)CC(C)(C)c1ccc(OCCOCC[N+](C)(C)Cc2ccccc2)cc1 [Benzethonium chloride] | 72 | – | – | – | – | – |
| C[C@H]1O[C@@H](O[C@H]2[C@@H](O)C[C@H](O[C@H]3[C@@H](O)C[C@H](O[C@H]4CC[C@@]5(C)[C@H](CC[C@@H]6[C@@H]5C[C@@H](O)[C@]5(C)[C@@H](C7=CC(=O)OC7)CC[C@]65O)C4)O[C@@H]3C)O[C@@H]2C)C[C@H](O)[C@@H]1O [Digoxin] | – | 19 | – | – | – | inhibition at 10 µM ([2]; Homo sapiens, Fibroblast, 48 h): 87%; IC50 ([2]; Homo sapiens, Fibroblast, 48 h): 0.01 µM; IC50 ([3]; 48 h): > 25 µM |
| C[C@]12CC[C@H](O)C[C@H]1CC[C@@H]1[C@@H]2CC[C@]2(C)[C@@H](C3=CC(=O)OC3)CC[C@]12O [Digitoxigenin] | 22 | – | – | – | – | inhibition at 10 µM ([2]; Homo sapiens, Fibroblast, 48 h): 93%; IC50 ([2]; Homo sapiens, Fibroblast, 48 h): 0.039 µM; IC50 ([3]; 48 h): > 25 µM |
| CCCCC(=O)O[C@H]1CC[C@H]2[C@@H]3CCc4cc(O)ccc4[C@H]3CC[C@]12C [Estradiol Valerate] | – | 65 | 9.7 | 66 | 11 | – |
| C[C@@H](Oc1cc(-c2cnn(C3CCNCC3)c2)cnc1N)c1c(Cl)ccc(F)c1Cl [Crizotinib (PF–02341066), Crizotinib] | 66 | – | 1.5 | 63 | 16 | – |
| COc1cccc2c1C(=O)c1c(O)c3c(c(O)c1C2=O)C[C@@](O)(C(=O)CO)C[C@@H]3O[C@H]1C[C@H](N)[C@H](O)[C@H](C)O1 [Doxorubicin hydrochloride] | – | 20 | 0.45 | 64 | > 25 | – |
| C[C@@H]1C[C@@H]([C@H](O)CC2CC(=O)NC(=O)C2)C(=O)[C@@H](C)C1 [Cycloheximide] | 27 | – | – | – | – | inhibition at 10 µM ([2]; Homo sapiens, Fibroblast, 48 h): 91%; IC50 ([2]; Homo sapiens, Fibroblast, 48 h): 0.109 µM; IC50 ([3]; 48 h): > 25 µM |
| Oc1c(Cl)cc(Cl)c2cccnc12 [Chloroxine] | – | 14 | 5.9 | 80 | > 25 | – |
| CC[C@H]1CN2CCc3cc(OC)c(OC)cc3[C@@H]2C[C@@H]1C[C@H]1NCCc2cc(OC)c(OC)cc21 [Emetine] | 25 | – | 0.071 | 100 | > 25 | – |
| CN[C@@H]1C[C@@H](c2ccc(Cl)c(Cl)c2)c2ccccc21 [Indatraline hydrochloride] | 20 | – | – | 67 | – | IC50 [2, 7]: 8.06 µM |
| Cl.Cl.Fc1ccc(C(OCCN2CCN(CCCc3ccccc3)CC2)c2ccc(F)cc2)cc1 [GBR 12909 dihydrochloride] | – | – | – | – | – | Effect on viability at 10 µM [% reduction] [1]: 13 % reduction; Effect HCA at 10 µM [% inhibition] ([2]; 10 µM compound, 5 ng/ml TGF–β1, 48 h): 56 % inhibition; IC50 ([2]; NHLF, 5 ng/ml TGF–β1 for 48 h, compound added with TGF–β1, mean ± SD): 9.9 µM |
| Cc1cc(N)c2ccccc2[n+]1CCCCCCCCCC[n+]1c(C)cc(N)c2ccccc21 [Dequalinium dichloride] | – | 39 | 5.8 | 67 | > 25 | – |
| COCCOC(=O)C1=C(C)NC(C)=C(C(=O)OC/C=C/c2ccccc2)C1c1cccc([N+](=O)[O-])c1 (stereo not drawn) [Cilnidipine] | 15 | – | 8.04 | 92 | > 25 | – |
| CCCCN(CCCC)CCC(O)c1cc2c(Cl)cc(Cl)cc2c2cc(C(F)(F)F)ccc12 (stereo not drawn) [Halofantrine hydrochloride] | 29 | – | 6.02 | 101 | 5.2 | – |
| Oc1c(Cl)cc(Cl)c(Cl)c1Cc1c(O)c(Cl)cc(Cl)c1Cl [Hexachlorophene] | – | – | – | – | – | inhibition at 10 µM ([2]; Homo sapiens, Fibroblast, 48 h): 93%; IC50 ([2]; Homo sapiens, Fibroblast, 48 h): 6.7 µM; IC50 ([3]; 48 h): > 25 µM |
| C[C@@H]1O[C@@H](O[C@@H]2C=C3CC[C@@H]4[C@H](CC[C@]5(C)[C@@H](c6ccc(=O)oc6)CC[C@]45O)[C@@]3(C)CC2)[C@H](O)[C@H](O)[C@H]1O [Proscillaridin A] | 12 | – | – | 101 | – | IC50 [2, 7]: 0.001 µM; IC50 ([3]; standard HCA, NHLF, 5 ng/ml TGF–β1, 48 h): > 25 µM |
| CC[C@@]1(O)C(=O)OCc2c1cc1n(c2=O)Cc2cc3c(CN(C)C)c(O)ccc3nc2-1 [Topotecan] | – | 8 | 0.97 | 88 | > 25 | – |
| Clc1cc(Cl)c(OCC#CI)cc1Cl [Haloprogin] | 61 | – | 1.3 | 77 | 4.5 | – |
| O=C1c2c(O)ccc(O)c2C(=O)c2c(NCCNCCO)ccc(NCCNCCO)c21 [Mitoxantrone dihydrochloride] | – | 31 | 0.62 | 101 | – | – |
| O=C(CCCCCCC(=O)Nc1ccccc1)NO [Vorinostat] | 24 | – | – | – | – | – |
| [H]/N=C(\N/C(=N/[H])NCCCCCCNC(=N)NC(=N)Nc1ccc(Cl)cc1)Nc1ccc(Cl)cc1 [Chlorhexidine] | – | 24 | 5.8 | 80 | – | – |
| C=CC(=O)N1CCC[C@@H](n2nc(-c3ccc(Oc4ccccc4)cc3)c3c(N)ncnc32)C1 [PCI–32765 (Ibrutinib), Ibrutinib] | – | 22 | – | – | – | – |
| COc1cccc2c1C(=O)c1c(O)c3c(c(O)c1C2=O)C[C@@](O)(C(=O)CO)C[C@@H]3O[C@H]1C[C@H](N)[C@@H](O)[C@H](C)O1 [Epirubicin hydrochloride] | – | 28 | 1.07 | 93 | – | – |
| CC(C)C[C@H](NC(=O)[C@H](CCc1ccccc1)NC(=O)CN1CCOCC1)C(=O)N[C@@H](Cc1ccccc1)C(=O)N[C@@H](CC(C)C)C(=O)[C@@]1(C)CO1 [Carfilzomib (PR–171), Carfilzomib] | – | 52 | 0.004 | 100 | – | – |
| COc1cccc2c1C(=O)c1c(O)c3c(c(O)c1C2=O)C[C@@](O)(C(C)=O)C[C@@H]3O[C@H]1C[C@H](N)[C@H](O)[C@H](C)O1 [Daunorubicin hydrochloride] | – | 14 | – | – | – | inhibition at 10 µM ([2]; Homo sapiens, Fibroblast, 48 h): 73%; IC50 ([2]; Homo sapiens, Fibroblast, 48 h): 0.27 µM |

— paper PMC6261607, “Novel high–throughput myofibroblast assays identify agonists with therapeutic potential in pulmonary fibrosis that act via EP2 and EP4 receptors” (PLoS ONE, 2018)
